Test results reported in patent US8597649B2, “Antagonist antibodies directed against calcitonin gene-related peptide and methods using same” (Labrys Biologics, Inc., priority 2005, dated 2013).

How the values were obtained:
[1] = system: skin vasodilatation induced by stimulation of rat saphenous nerve; experiment: skin vasodilatation induced by stimulation of rat saphenous nerve; assay type: in vivo; conditions: 400 nmol/kg i.v., 3-5 min before stimulation, compared to the control (FIG. 2A, 2B)
Procedure: To test antagonist activity of anti-CGRP antibodies, effect of the antibodies on skin vasodilatation by stimulation of rat saphenous nerve was tested using a rat model described previously. Escott et al., Br. J. Pharmacol. 110:772-776, 1993. In this rat model, electrical stimulation of saphenous nerve induces release of CGRP from nerve endings, resulting in an increase in skin blood flow. Blood flow in the foot skin of male Sprague Dwaley rats (170-300 g, from Charles River Hollister) was measured after saphenous nerve stimulation. Rats were maintained under anesthesia with 2% isoflurane. Bretylium tosylate (30 mg/kg, administered i.v.) was given at the beginning of the experiment to minimize vasoconstriction due to the concomitant stimulation of sympathetic fibers of the saphenous nerve. Body temperature was maintained at 37° C. by the use of a rectal probe thermostatically connected to a temperature controlled heating pad. […]
For experiments shown in FIGS. […] Skin blood flow, measured as blood cell flux, was monitored with a laser Doppler flow meter. […]
For experiments shown in FIGS. 4A and 4B, saphenous nerve was exposed surgically before antibody administration. […] Skin blood flow, measured as blood cell flux, was monitored with a laser Doppler flow meter. […]

[2] = system: middle meningeal artery (MMA) dilation evoked by electrical field stimulation; experiment: Dural artery (closed cranial window) assay; assay type: in vivo; conditions: rat, i.v.
Procedure: Closed Cranial Window Model: The purpose of this experiment was to determine the acute effect of anti-CGRP antagonist antibodies and compare it with the acute effect of the CGRP receptor antagonist BIBN4096BS. Experiments were carried out as previously described (Williamson et al., Cephalalgia 17(4):518-24 (1997)) with the following modifications. Sprague Dawley rats (300-400 g) were anesthetized with 70 mg/kg i.p. pentobarbital. Anesthesia was maintained with 20 mg/kg/hr i.v. pentobarbital. Rats were cannulated through the jugular vein for delivery of all drugs. Blood pressure was monitored with a probe (mikro-tip catheter, Millar Instruments) threaded through the femoral artery into the abdominal aorta. The rats were tracheotomized and breathing rate was maintained at 75 breaths per minute at a volume of 3.5 mL. After fixating the head in a stereotactic instrument and removing the scalp, a 2×6 mm window in the left parietal area just lateral to the sagittal suture was made by thinning the bone with a dental drill. […] Lateral to the electrode window another window of 5×6 mm was created and filled with heavy mineral oil through which the diameter of a branch of the middle meningeal artery (MMA) was continuously monitored with a CCD camera and a video dimension analyzer (Living Systems). […] All data was recorded using chart software (ADInstruments). […]

| Molecule | blood flow increase stimulated by applying electronic pulses on saphenous nerve [1] | time after dosing by which the effect has completely disappeared ([2]; 300 μg/kg BIBN4096BS (FIG. 9)) [min] | block of MMA dilation evoked by electrical field stimulation ([2]; acute, 10 mg/kg mu7E9, 300 μg/kg BIBN4096BS (FIG. 9)) |
| --- | --- | --- | --- |
| CGRP 8-37: Positive control compound CGRP 8-37 (vasodilatation antagonist) (VTHRLAGLLSRSGGVVKNNFVPTNVGSKAF) [reference compound] | inhibited |  |  |
| NCCCC[C@H](NC(=O)[C@@H](Cc1cc(Br)c(O)c(Br)c1)NC(=O)N1CCC(N2Cc3ccccc3NC2=O)CC1)C(=O)N1CCN(c2ccncc2)CC1 [BIBN4096BS] |  | ≤ 90 | blocks |
